Test results from ChEMBL document CHEMBL1201862, “PubChem BioAssay data set” (2004).
The source made the active and inactive calls.

Experiments:
Assay type in all cases: functional
[1] = target: Aurora kinase B (Homo sapiens, UniProt Q96GD4)
[2] = target: Vascular endothelial growth factor receptor 1 (Homo sapiens, UniProt P17948);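 also: measured within a kinome-wide profiling panel, FLT1 as the panel member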
[3] = target: T1, Serine/threonine-protein kinase Chk1 (Homo sapiens, UniProt O14757);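 also: measured as one member of a kinome-wide kinase profiling panel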
T1 sequence (O14757 whole entry): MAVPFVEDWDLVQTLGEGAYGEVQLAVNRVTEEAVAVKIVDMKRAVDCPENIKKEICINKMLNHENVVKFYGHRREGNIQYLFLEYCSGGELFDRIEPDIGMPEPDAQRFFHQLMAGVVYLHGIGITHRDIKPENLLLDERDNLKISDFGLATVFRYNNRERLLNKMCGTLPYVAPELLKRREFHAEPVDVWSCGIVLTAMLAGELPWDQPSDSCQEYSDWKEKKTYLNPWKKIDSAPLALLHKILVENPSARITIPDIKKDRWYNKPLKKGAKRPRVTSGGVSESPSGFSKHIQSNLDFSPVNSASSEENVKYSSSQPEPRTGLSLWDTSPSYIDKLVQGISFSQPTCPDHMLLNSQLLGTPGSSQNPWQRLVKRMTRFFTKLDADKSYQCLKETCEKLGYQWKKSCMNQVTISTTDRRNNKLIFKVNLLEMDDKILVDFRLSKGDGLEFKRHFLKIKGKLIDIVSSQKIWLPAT

[4] = target: Macrophage colony-stimulating factor 1 receptor (Homo sapiens, UniProt P07333);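 also: value comes from the Navigating the Kinome screening panel, CSF1R member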
Sequence of Macrophage colony-stimulating factor 1 receptor (P07333 whole entry): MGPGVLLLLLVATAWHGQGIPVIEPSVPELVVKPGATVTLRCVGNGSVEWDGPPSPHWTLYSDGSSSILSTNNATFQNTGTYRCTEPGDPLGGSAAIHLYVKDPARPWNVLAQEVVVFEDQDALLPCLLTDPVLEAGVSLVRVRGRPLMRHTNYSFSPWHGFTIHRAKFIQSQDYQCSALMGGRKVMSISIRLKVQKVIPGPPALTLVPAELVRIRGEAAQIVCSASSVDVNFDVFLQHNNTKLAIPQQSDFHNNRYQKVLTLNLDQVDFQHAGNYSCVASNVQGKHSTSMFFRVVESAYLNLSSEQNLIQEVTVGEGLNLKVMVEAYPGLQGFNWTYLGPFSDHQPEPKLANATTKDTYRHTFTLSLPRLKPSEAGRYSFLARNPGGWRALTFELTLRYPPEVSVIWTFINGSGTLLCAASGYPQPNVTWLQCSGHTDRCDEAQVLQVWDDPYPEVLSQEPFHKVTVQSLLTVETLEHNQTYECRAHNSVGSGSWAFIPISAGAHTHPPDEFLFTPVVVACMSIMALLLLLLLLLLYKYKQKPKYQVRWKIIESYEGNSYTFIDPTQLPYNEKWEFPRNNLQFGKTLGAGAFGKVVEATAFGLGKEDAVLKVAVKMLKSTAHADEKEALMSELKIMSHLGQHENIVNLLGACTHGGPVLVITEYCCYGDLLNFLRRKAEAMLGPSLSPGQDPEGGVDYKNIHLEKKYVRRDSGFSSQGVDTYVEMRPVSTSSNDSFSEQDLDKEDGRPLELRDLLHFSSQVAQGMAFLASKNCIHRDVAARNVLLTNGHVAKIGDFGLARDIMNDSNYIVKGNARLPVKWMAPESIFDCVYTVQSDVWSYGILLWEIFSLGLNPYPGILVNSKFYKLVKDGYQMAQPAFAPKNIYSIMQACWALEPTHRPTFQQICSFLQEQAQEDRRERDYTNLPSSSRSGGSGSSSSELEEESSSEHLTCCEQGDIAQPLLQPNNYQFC

[5] = target: Glycogen synthase kinase-3 alpha (Homo sapiens, UniProt P49840);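 also: GSK3A result taken from a broad kinome-wide kinase panel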
[6] = target: Serine/threonine-protein kinase pim-1 (Homo sapiens, UniProt P11309)
[7] = target: cAMP-dependent protein kinase catalytic subunit alpha (Homo sapiens, UniProt P17612)
[8] = target: Cyclin-dependent kinase 7 (Homo sapiens, UniProt P50613);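 also: value comes from a kinome-wide kinase profiling panel in which CDK7 is one member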
[9] = target: Vascular endothelial growth factor receptor 2 (Homo sapiens, UniProt P35968)
Sequence of Vascular endothelial growth factor receptor 2 (P35968 whole entry): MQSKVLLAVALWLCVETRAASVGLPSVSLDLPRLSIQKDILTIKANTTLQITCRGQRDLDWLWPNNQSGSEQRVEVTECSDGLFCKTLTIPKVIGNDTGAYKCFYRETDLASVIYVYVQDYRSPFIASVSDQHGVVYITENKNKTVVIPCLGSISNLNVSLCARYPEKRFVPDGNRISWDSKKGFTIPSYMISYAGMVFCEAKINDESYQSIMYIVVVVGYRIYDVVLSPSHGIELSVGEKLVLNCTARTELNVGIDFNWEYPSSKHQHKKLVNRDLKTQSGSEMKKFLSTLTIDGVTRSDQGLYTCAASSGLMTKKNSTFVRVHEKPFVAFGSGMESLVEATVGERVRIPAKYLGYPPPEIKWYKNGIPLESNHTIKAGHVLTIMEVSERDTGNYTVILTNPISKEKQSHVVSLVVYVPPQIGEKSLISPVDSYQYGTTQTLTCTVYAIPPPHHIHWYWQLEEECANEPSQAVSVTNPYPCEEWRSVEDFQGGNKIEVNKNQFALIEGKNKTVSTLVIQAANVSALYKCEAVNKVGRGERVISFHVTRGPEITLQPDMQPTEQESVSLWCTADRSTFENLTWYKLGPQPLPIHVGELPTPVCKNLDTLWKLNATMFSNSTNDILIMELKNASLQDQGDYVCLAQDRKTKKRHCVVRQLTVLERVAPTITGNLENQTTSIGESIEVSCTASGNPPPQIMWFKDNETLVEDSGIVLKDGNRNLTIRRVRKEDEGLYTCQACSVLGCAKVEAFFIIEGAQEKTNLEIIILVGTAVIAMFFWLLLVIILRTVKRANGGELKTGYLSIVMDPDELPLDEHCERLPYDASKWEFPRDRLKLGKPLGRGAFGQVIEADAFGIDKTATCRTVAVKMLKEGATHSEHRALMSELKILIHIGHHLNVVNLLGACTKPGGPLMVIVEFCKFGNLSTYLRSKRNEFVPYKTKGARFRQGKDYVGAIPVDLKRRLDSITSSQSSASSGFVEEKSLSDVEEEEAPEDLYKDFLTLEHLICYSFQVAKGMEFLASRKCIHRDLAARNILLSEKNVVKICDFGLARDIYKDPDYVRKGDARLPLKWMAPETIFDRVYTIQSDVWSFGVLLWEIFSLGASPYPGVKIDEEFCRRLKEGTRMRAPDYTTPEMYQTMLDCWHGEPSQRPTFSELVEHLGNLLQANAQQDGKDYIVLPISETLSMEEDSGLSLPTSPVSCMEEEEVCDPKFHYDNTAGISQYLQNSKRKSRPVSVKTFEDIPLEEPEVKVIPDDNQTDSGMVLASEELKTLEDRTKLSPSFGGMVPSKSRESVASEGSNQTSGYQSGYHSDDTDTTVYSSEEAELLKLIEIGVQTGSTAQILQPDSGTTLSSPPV

[10] = target: Death-associated protein kinase 3 (Homo sapiens, UniProt O43293);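 also: measured as one member of a kinome-wide profiling panel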
[11] = target: Mitogen-activated protein kinase 8 (Homo sapiens, UniProt P45983);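 also: value comes from one member of a kinome-wide kinase profiling panel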
[12] = target: Mitogen-activated protein kinase kinase kinase kinase 4 (Homo sapiens, UniProt O95819)
Sequence of Mitogen-activated protein kinase kinase kinase kinase 4 (O95819 whole entry): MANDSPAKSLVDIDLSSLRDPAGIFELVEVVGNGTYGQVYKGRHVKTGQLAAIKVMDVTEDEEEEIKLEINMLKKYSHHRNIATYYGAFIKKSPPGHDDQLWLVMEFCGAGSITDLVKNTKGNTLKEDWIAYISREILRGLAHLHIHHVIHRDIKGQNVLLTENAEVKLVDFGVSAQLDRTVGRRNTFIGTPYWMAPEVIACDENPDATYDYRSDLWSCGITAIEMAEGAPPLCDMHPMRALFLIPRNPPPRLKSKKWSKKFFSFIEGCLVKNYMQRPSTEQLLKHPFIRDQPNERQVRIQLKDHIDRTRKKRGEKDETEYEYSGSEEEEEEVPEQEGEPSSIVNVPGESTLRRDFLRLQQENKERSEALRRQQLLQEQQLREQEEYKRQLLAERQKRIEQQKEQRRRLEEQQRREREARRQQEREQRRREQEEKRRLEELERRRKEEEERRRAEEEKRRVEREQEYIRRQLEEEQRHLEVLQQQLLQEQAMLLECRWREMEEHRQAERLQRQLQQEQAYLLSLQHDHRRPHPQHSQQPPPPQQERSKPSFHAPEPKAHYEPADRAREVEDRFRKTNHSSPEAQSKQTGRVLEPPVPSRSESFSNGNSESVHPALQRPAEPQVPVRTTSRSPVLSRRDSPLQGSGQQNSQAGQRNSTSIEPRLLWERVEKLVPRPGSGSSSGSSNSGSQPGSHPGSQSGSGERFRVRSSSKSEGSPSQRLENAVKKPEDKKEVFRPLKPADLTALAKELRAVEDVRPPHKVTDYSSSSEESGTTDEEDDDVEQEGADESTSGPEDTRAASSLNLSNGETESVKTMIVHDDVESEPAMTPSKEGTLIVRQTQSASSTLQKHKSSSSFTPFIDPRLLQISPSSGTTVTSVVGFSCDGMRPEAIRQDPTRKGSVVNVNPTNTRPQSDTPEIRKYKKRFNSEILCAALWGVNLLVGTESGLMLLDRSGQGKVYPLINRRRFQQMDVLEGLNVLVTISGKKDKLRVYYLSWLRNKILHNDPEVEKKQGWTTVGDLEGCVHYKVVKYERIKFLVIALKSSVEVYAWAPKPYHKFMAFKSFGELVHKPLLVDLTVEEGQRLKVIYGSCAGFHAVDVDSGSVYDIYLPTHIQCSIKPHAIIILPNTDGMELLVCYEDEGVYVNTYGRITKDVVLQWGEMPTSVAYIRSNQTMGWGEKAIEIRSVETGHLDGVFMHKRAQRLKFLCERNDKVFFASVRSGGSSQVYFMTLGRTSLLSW

[13] = target: Dual specificity protein kinase CLK2 (Homo sapiens, UniProt P49760)
[14] = target: Fibroblast growth factor receptor 1 (Homo sapiens, UniProt P11362)
[15] = target: T2, Mitogen-activated protein kinase kinase kinase kinase 2 (Homo sapiens, UniProt Q12851);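 also: measured as one member of a kinome-wide kinase panel, with MAP4K2 as the panel entry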
T2 sequence (Q12851 whole entry): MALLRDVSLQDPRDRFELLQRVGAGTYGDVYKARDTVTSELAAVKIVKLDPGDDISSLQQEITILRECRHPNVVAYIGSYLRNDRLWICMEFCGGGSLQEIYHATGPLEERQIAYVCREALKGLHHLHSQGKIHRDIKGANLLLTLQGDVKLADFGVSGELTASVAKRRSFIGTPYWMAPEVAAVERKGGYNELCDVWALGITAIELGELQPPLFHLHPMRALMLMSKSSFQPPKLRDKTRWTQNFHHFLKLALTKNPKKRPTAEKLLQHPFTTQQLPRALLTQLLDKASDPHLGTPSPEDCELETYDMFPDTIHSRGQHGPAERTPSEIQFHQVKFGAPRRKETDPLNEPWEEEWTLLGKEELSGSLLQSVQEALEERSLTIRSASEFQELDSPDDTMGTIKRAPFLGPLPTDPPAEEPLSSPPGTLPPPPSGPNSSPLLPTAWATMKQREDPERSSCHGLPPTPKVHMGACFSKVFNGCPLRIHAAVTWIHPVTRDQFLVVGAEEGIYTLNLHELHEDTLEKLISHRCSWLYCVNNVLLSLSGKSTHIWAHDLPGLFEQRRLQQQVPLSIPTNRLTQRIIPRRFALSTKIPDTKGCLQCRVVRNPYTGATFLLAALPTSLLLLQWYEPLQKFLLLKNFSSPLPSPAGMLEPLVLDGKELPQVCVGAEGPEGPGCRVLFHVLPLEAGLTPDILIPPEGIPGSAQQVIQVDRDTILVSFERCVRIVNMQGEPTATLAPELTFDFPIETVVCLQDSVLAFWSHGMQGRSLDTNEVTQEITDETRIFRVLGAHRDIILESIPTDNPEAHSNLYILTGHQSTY

[16] = target: T3, cAMP-dependent protein kinase catalytic subunit PRKX (Homo sapiens, UniProt P51817)
T3 sequence (P51817 whole entry): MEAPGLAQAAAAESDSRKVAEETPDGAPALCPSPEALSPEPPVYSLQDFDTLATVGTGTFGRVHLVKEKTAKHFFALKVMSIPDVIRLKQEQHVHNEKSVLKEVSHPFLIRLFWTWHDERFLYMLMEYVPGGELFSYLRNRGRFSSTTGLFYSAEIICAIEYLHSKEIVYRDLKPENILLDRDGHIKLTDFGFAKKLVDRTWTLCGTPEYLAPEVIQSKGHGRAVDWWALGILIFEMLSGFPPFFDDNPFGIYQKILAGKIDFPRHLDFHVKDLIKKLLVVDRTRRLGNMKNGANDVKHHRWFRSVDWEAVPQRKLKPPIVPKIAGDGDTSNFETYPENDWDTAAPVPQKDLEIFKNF

[17] = target: Glycogen synthase kinase-3 beta (Homo sapiens, UniProt P49841);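 also: value comes from a broad kinome profiling panel, with GSK3B as the panel member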
[18] = target: 5'-AMP-activated protein kinase catalytic subunit alpha-1 (Homo sapiens, UniProt Q13131)
[19] = target: Platelet-derived growth factor receptor alpha (Homo sapiens, UniProt P16234); assay: Navigating the Kinome. Panel member name: PDGFRA
Sequence of Platelet-derived growth factor receptor alpha (P16234 whole entry): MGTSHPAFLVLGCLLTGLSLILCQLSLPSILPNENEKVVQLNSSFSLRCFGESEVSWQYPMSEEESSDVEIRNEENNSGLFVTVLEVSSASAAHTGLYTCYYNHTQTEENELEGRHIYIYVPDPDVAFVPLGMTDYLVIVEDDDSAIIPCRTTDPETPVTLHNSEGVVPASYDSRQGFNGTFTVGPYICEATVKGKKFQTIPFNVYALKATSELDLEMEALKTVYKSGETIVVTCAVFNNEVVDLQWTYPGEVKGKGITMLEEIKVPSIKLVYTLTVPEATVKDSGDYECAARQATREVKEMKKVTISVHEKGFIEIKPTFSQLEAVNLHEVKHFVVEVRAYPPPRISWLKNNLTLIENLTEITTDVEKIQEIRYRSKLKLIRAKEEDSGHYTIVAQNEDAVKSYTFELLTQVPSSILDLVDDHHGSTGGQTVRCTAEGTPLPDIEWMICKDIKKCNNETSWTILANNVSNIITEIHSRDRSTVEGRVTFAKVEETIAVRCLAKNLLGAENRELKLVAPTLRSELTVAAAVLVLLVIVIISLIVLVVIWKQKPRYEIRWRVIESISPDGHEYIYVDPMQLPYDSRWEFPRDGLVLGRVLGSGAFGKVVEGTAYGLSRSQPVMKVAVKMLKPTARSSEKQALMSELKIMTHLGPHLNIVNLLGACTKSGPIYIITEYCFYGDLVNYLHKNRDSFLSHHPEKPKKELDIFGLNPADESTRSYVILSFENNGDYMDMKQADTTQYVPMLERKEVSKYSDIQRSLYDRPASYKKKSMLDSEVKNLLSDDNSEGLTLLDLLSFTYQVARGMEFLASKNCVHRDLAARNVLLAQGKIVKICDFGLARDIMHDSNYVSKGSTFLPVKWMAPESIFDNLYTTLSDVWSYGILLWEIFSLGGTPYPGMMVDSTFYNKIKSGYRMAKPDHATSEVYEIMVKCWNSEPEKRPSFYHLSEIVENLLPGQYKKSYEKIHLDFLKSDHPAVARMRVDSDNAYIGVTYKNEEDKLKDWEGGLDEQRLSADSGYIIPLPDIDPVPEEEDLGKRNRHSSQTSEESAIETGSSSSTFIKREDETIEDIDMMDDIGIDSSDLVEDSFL

[20] = target: Leukocyte tyrosine kinase receptor (Homo sapiens, UniProt P29376); assay: Navigating the Kinome. Panel member name: LTK
[21] = target: Cyclin-dependent kinase 8 (Homo sapiens, UniProt P49336); assay: Navigating the Kinome. Panel member name: CDK8
Sequence of Cyclin-dependent kinase 8 (P49336 whole entry): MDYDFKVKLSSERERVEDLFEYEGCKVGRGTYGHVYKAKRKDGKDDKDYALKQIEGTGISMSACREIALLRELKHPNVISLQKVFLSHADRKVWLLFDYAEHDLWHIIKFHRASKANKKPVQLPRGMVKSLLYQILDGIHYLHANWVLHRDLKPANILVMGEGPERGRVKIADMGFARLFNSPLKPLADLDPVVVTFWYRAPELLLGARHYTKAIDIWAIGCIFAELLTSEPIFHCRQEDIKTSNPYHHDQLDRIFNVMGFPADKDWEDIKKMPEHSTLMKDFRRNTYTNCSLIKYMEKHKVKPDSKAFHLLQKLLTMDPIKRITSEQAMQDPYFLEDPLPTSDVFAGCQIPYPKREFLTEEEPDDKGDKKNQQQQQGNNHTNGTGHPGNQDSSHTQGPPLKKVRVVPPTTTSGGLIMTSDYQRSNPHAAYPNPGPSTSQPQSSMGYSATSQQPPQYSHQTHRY

| Compound | Ki [1] | Ki [2] | Ki [3] | Ki [4] | Ki [5] | Ki [6] | Ki [7] | Ki [8] | Ki [9] | Ki [10] | Ki [11] | Ki [12] | Ki [13] | Ki [14] | Ki [15] | Ki [16] | Ki [17] | Ki [18] | Ki [19] | Ki [20] | also measured |
| --- | --- | --- | --- | --- | --- | --- | --- | --- | --- | --- | --- | --- | --- | --- | --- | --- | --- | --- | --- | --- | --- |
| NC1CCC(Nc2nccc(-c3c[nH]c4ncccc34)n2)CC1 (configuration not stated) | 2 µM (active) | > 0.398 µM (inactive) | 2 µM (active) | 0.1 µM (active) | 0.158 µM (active) | 0.251 µM (active) | 0.0501 µM (active) | 0.00398 µM (active) | > 7.94 µM (inactive) | 0.158 µM (active) | 0.1 µM (active) | 0.0631 µM (active) | 0.00501 µM (active) | 3.98 µM (active) | 0.0501 µM (active) | 0.00631 µM (active) | 0.2 µM (active) | 0.126 µM (active) |  |  |  |
| OCc1cc(-c2ccc3[nH]ncc3c2)on1 | 20 µM (active) | 25.1 µM (active) | 39.8 µM (active) | > 100 µM (inactive) | 2.51 µM (active) | 15.8 µM (active) | 5.01 µM (active) | 12.6 µM (active) | 7.94 µM (active) | 3.98 µM (active) | 12.6 µM (active) | 20 µM (active) | 1 µM (active) | 20 µM (active) | 39.8 µM (active) | 15.8 µM (active) | 3.16 µM (active) | 31.6 µM (active) | 39.8 µM (active) | 20 µM (active) | Ki [21]: 6.31 µM (active) |
| COC(C(=O)N1Cc2[nH]nc(NC(=O)c3ccc(N4CCN(C)CC4)cc3)c2C1)c1ccccc1 (configuration not stated) |  | 0.0398 µM (active) |  | 0.158 µM (active) |  |  |  |  |  | 0.794 µM (active) |  |  |  |  |  | > 2.51 µM (inactive) |  |  | > 2 µM (inactive) | 0.0316 µM (active) | Ki [21]: > 3.98 µM (inactive) |
| CC(C)(O)c1cn(-c2ccc3[nH]ncc3c2)nn1 | 31.6 µM (active) | 79.4 µM (active) | 63.1 µM (active) | 39.8 µM (active) | 12.6 µM (active) | 50.1 µM (active) | 10 µM (active) | 10 µM (active) | 39.8 µM (active) | 2 µM (active) | 20 µM (active) | 39.8 µM (active) | 6.31 µM (active) | 39.8 µM (active) | 50.1 µM (active) | 20 µM (active) | 12.6 µM (active) | 6.31 µM (active) | 63.1 µM (active) | 15.8 µM (active) | Ki [21]: 15.8 µM (active) |
